Data reported in patent publication US6156493A, “Modified-affinity streptavidin” (priority 1997, dated 2000).
Like-named read-outs stand apart in the source and are kept apart here.

Key:
[1] = target: T1, Streptomyces avidinii core streptavidin variant W120F (Streptomyces avidinii, UniProt P22629, W144F); settings: tight-binding limit; 0.2 nM total biotin
T1 construct: core streptavidin, defined as residues 13-139 of the naturally occurring protein; made in house
Protocol: (§1) The free ligand was then separated from the protein-bound ligand by either Microcon-30 or Centriprep-30 centrigual ultrafiltration devices (Amicon, Inc.). Typically, 0.1-1 ml of the free ligand solution or the protein-ligand mixture was added to 18 ml liquid scintillation cocktail (Ecolume, ICN Biomedicals, Inc., Costa Mesa, Calif.) and assayed on a liquid scintillation counter (Beckman Instruments, Inc., Fullerton, Calif.). The Ka was determined from a nonlinear curve fit of the fraction of protein-bound ligand versus the free protein concentration.
(§2) This assay provides a useful estimate of the Ka when the affinities lie between 10^6 -10^9.

[2] = target: T2, Streptomyces avidinii core streptavidin variant W108F (Streptomyces avidinii, UniProt P22629, W132F); test: Equilibrium biotin-binding enthalpy and heat capacity (isothermal titrating calorimetry)
T2 construct: core streptavidin, defined as residues 13-139 of the naturally occurring protein; made in house
Protocol: (§3) The equilbrium binding enthalpies, ΔH°, and the heat capacities, ΔCp°, have also been […] with the streptavidin mutants (Table II). Heat capacities were determined as generally described in Murphy et al., Proteins: Structure, Function and Genetics 15:113-120 (1993), incorporated herein by reference.
(§4) The determination of ΔGr .noteq. by transition state analysis and the independent estimation of ΔG^0 from affinity measurements allows the drawing of free energy profiles for WT streptavidin and the Trp to Phe mutants. Similarly, the enthalpic energy profiles can be drawn from the equilibrium biotin-binding enthalpy (ΔH^0), independently determined by isothermal titrating calorimetry measurements, and ΔHr .noteq. available from transition state analysis of the temperature-dependent protein-ligand dissociation kinetics. The virtue of this analysis is that is allows the free energy barriers responsible for the off-rates of the different mutants to be delineated in terms of alterations in the transition state and/or the biotin-bound ground state, and further partitions these free energy changes into enthalpic and entropic components. Upon comparison with the results for WT streptavidin, the thermodynamic effects of mutating specific residues can then be mapped, providing considerable insight into the structure and energetics of the transition state.

[3] = target: T3, Streptomyces avidinii core streptavidin variant W120A (Streptomyces avidinii, UniProt P22629, W144A); test: as above
T3 construct: core streptavidin, defined as residues 13-139 of the naturally occurring protein; made in house
Protocol: as §3, §4

[4] = target: T1, Streptomyces avidinii core streptavidin variant W120F; test: as above
Protocol: as §3, §4

[5] = target: T4, Streptomyces avidinii core streptavidin variant W79A (Streptomyces avidinii, UniProt P22629, W103A); test: as above
T4 construct: core streptavidin, defined as residues 13-139 of the naturally occurring protein; made in house
Protocol: as §3, §4

[6] = target: T5, Streptomyces avidinii core streptavidin variant W79F (Streptomyces avidinii, UniProt P22629, W103F); test: as above
T5 construct: core streptavidin, defined as residues 13-139 of the naturally occurring protein; made in house
Protocol: as §3, §4

[7] = target: T6, Streptomyces avidinii core streptavidin, wild type (WT) (Streptomyces avidinii, UniProt P22629); test: as above
T6 construct: core streptavidin, defined as residues 13-139 of the naturally occurring protein; made in house
Protocol: as §3, §4

[8] = target: T2, Streptomyces avidinii core streptavidin variant W108F; test: Streptavidin-biotin dissociation rate (3H biotin, cold biotin chase, ultrafiltration) and transition state analysis; format: binding
Protocol: (§5) Fifty μl of the filtrate were mixed with 10 ml scintillation cocktail in triplicate and assayed for radioactivity in a liquid scintillation counter (LS-7000, Beckman Instruments, Fullerton, Calif.). […] Standard deviations were determined based on three independent measurements.

[9] = target: T1, Streptomyces avidinii core streptavidin variant W120F; test: as above; format: binding
Protocol: as §5

[10] = target: T5, Streptomyces avidinii core streptavidin variant W79F; test: as above; format: binding
Protocol: as §5

[11] = target: T6, Streptomyces avidinii core streptavidin, wild type (WT); test: as above; format: binding
Protocol: as §5

[12] = target: T6, Streptomyces avidinii core streptavidin, wild type (WT); test: Equilibrium binding of 3H-biotin (ultrafiltration spin-column assay); settings: tight-binding limit; 0.2 nM total biotin; isotherm identical to W120F
Protocol: as §1, §2

[13] = target: T7, Streptomyces avidinii core streptavidin (residues 13-139), wild type (WT) (Streptomyces avidinii, UniProt P22629); test: ELISA concentration-dependent binding to biotin/BSA or iminobiotin/BSA; settings: ligand iminobiotin/BSA, EC50 is protein concentration, read-out: Absolute EC50 (converted)
T7 construct: core streptavidin, defined as residues 13-139 of the naturally occurring protein; made in house
Protocol: ELISA Assays. […] 2-Iminobiotin conjugated to bovine serum albumin (iminobiotin/BSA) was synthesized by reacting a twenty-fold molar excess of 2-iminobiotin N-hydroxysuccinimide ester (sigma) with 100 mg BSA in 100 mM NaHCO3, pH 8.3 for 12 hr at 4° C. with end-over-end stirring, followed by dialysis and gel filtration (G-25, Pharmacia) to separate iminobiotin/BSA from unreacted 2-iminobiotin. […] The next day the microwell plates were incubated with 200 μl per well of blocking buffer at pH 8.0 or pH 10.0 (50 mM sodium phosphate, pH 8.0 or 50 mM Na2 CO3, pH 10.0/100 mM NaCl/0.5% (w/v) BSA/0.05% (v/v) Tween-20) for at least 2 hr at room temperature and then incubated in ten-fold serial dilutions of 100 μg/ml WT streptavidin or mutants (100 μl/well) for 2 hr at room temperature, rinsed with blocking buffer at pH 8.0 or pH 10.0 (200 μl/well), and incubated for 1 hr at room temperature in 2×10^4 dilution of primary antistreptavidin antibodies (Sigma) in pH 8.0 or pH 10.0 blocking buffer (100 μl/well). […]
where a, b, c, and d are the adjustable fitting parameters; x=streptavidin concentration (μg/ml); y=absorbance at 405 nm. […]

[14] = target: Streptomyces avidinii core streptavidin Trp→Ala mutants (WxA: W79A, W108A, W120A); test: ELISA concentration-dependent binding to iminobiotin/BSA; settings: ligand iminobiotin/BSA; pH 8/10; lower bound
Protocol: (§6) ELISA Assays. […] 2-Iminobiotin conjugated to bovine serum albumin (iminobiotin/BSA) was synthesized by reacting a twenty-fold molar excess of 2-iminobiotin N-hydroxysuccinimide ester (sigma) with 100 mg BSA in 100 mM NaHCO3, pH 8.3 for 12 hr at 4° C. with end-over-end stirring, followed by dialysis and gel filtration (G-25, Pharmacia) to separate iminobiotin/BSA from unreacted 2-iminobiotin. […] The next day the microwell plates were incubated with 200 μl per well of blocking buffer at pH 8.0 or pH 10.0 (50 mM sodium phosphate, pH 8.0 or 50 mM Na2 CO3, pH 10.0/100 mM NaCl/0.5% (w/v) BSA/0.05% (v/v) Tween-20) for at least 2 hr at room temperature and then incubated in ten-fold serial dilutions of 100 μg/ml WT streptavidin or mutants (100 μl/well) for 2 hr at room temperature, rinsed with blocking buffer at pH 8.0 or pH 10.0 (200 μl/well), and incubated for 1 hr at room temperature in 2×10^4 dilution of primary antistreptavidin antibodies (Sigma) in pH 8.0 or pH 10.0 blocking buffer (100 μl/well). The plates were rinsed three times with 200 μl per well blocking buffer at the assay pH, incubated with secondary anti-IgG/alkaline phosphatase conjugate (Sigma) for 1 hr at room temperature, rinsed three times with blocking buffer, and assayed for alkaline phosphatase activity at pH 10.0. Every plate assayed had triplicates for each protein concentration. The data were processed on Mathcad (Mathworks) to determine the equivalent bulk concentration at 50% saturation of binding (EC50) values using a published 4-parameter nonlinear fitting algorithm shown below (Jin et al., J. Mol. Biol. 226: 851-865 (1992)):
(§7) y=a+(d-a)/[1+exp (b(c-x))]
(§8) where a, b, c, and d are the adjustable fitting parameters; x=streptavidin concentration (μg/ml); y=absorbance at 405 nm. Absolute EC50 in μg ml^-1 are given by the value of the parameter c for the best fit of the fitting function to the binding isotherm. Relative EC50 values reported in Table I are EC50 (mutant)/EC50 (WT streptavidin).

[15] = target: T2, Streptomyces avidinii core streptavidin variant W108F; test: as above; settings: for EC50: Absolute EC50, ligand iminobiotin/BSA
Protocol: as §6, §7, §8

[16] = target: T1, Streptomyces avidinii core streptavidin variant W120F; test: as above; settings: Absolute EC50, ligand iminobiotin/BSA
Protocol: as §6, §7, §8

[17] = target: T5, Streptomyces avidinii core streptavidin variant W79F; test: as above; settings: for EC50: Absolute EC50, ligand iminobiotin/BSA
Protocol: as §6, §7, §8

[18] = target: Streptomyces avidinii streptavidin, wild type (WT); test: Known Ka of ligand-WT streptavidin partners used for the analysis; format: binding; settings: pH 10.0; estimated from experimentally-determined value for iminobiotin/avidin
Excerpt: Streptavidin, a protein produced by Streptomyces avidinii, forms a very strong and specific non-covalent complex with the water soluble vitamin biotin. […] See, Green, Adv. Prot. Chem. 29: 85-143 (1975).
Order of magnitude determinations of ΔKa for the mutants were estimated from the EC50, given the known Ka 's of some of these ligand-protein partners. […] These numbers are further supported by the independently determined biotin-binding affinities of the W79A and W120A mutants, which agree well with the ELISA estimates.

[19] = target: T3, Streptomyces avidinii core streptavidin variant W120A; test: Affinity of W120A for 2-iminobiotin; format: binding
[20] = equilibrium biotin binding enthalpy
[21] = heat capacity of biotin binding
[22] = biotin-bound ground state relative to WT
[23] = activation barrier of biotin dissociation
[24] = activation enthalpy of biotin dissociation, transition state analysis

T2 sequence (P22629 37-163 W132F): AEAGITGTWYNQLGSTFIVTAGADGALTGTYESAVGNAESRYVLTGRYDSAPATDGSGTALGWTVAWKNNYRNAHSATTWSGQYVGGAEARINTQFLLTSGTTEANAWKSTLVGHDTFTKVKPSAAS
T3 sequence (P22629 37-163 W144A): as the sequence (P22629 37-163 W132F) above, with F96W, W108A counted along it
T6 sequence (P22629 37-163): as the sequence (P22629 37-163 W132F) above, with F96W counted along it
T1 sequence (P22629 37-163 W144F): as the sequence (P22629 37-163 W132F) above, with F96W, W108F counted along it
T5 sequence (P22629 37-163 W103F): as the sequence (P22629 37-163 W132F) above, with W67F, F96W counted along it
T4 sequence (P22629 37-163 W103A): as the sequence (P22629 37-163 W132F) above, with W67A, F96W counted along it
T7 sequence (P22629 37-163): as the sequence (P22629 37-163 W132F) above, with F96W counted along it

O=C(O)CCCC[C@@H]1SC[C@@H]2NC(=O)N[C@@H]21 [biotin]
Ka (biotin) [1]: > 10^9
ΔH° [2, 20]: -23.5 kcal/mol
ΔCp° [2, 21]: -386 cal/molK
ΔH° [3, 20]: -12.8 kcal/mol
ΔCp° [3, 21]: -272 cal/molK
TΔΔS° (entropy term) ([4]; biotin binding, relative to WT): +2.4 kcal mol^-1
ΔΔH° ([4]; biotin binding, relative to WT): +5.1 kcal mol^-1
ΔΔG° [4, 22]: +2.7 kcal mol^-1
ΔH° [4, 20]: -19.4 kcal/mol
ΔCp° [4, 21]: -303 cal/molK
ΔH° [5, 20]: -18.5 kcal/mol
ΔCp° [5, 21]: -357 cal/molK
TΔΔS° ([6]; biotin binding, relative to WT): -2.4 kcal/mol
ΔΔH° ([6]; biotin binding, relative to WT): -1.5 kcal/mol
ΔΔG° [6, 22]: +0.9 kcal mol^-1
ΔH° [6, 20]: -25.9 kcal/mol
ΔCp° [6, 21]: -266 cal/molK
ΔH° [7, 20]: -24.5 kcal/mol
ΔCp° [7, 21]: -345 cal/molK
TΔSr≠ ([8]; T = 298K, biotin dissociation): 13.8 ± 0.9 kal mol^-1
ΔGr≠ [8, 23]: 22.7 ± 1.3 kal mol^-1
ΔHr≠ [8, 24]: 36.5 ± 0.9 kcal/mol
ΔΔGr≠ = ΔGr≠(mutant) - ΔGr≠(WT) ([8]; biotin dissociation): -1.7 kal mol^-1
TΔSr≠ ([9]; T = 298K, biotin dissociation): 6.6 ± 1.0 kal mol^-1
ΔGr≠ [9, 23]: 21.9 ± 1.4 kal mol^-1
ΔΔGr≠ = ΔGr≠(mutant) - ΔGr≠(WT) ([9]; biotin dissociation): -2.5 kal mol^-1
TΔSr≠ ([10]; T = 298K, biotin dissociation): 11.6 ± 0.6 kal mol^-1
ΔGr≠ [10, 23]: 23.3 ± 0.8 kal mol^-1
ΔHr≠ [10, 24]: 34.9 ± 0.6 kcal/mol
ΔΔGr≠ = ΔGr≠(mutant) - ΔGr≠(WT) ([10]; biotin dissociation): -1.1 kal mol^-1
ΔGr≠ (activation barrier for biotin dissociation) [11]: 24.4 kcal/mol
TΔSr≠ ([11]; T = 298K, biotin dissociation): 7.6 ± 2.1 kal mol^-1
ΔGr≠ [11, 23]: 24.4 ± 2.4 kal mol^-1
t1/2 of biotin complex ([11]; biotin dissociation): 35 h
ΔΔGr≠ = ΔGr≠(mutant) - ΔGr≠(WT) ([11]; biotin dissociation): 0 kal mol^-1
Ka (biotin) [12]: > 10^9

N=C1N[C@H]2[C@H](CS[C@H]2CCCCC(=O)O)N1 [2-iminobiotin]
EC50 ([13]; pH 8): 0.189 µM
EC50 ([13]; pH 10): 0.214 µM
Absolute EC50 [14]: ≥ 100 µg/mL
Kd [15]: 9260 to 9350 µM
EC50 ([15]; pH 8): 39.5 µM
EC50 ([15]; pH 10): 0.493 µM
EC50 ([16]; pH 8): 42.2 µM
EC50 ([16]; pH 10): 16.6 µM
Kd [17]: 9260 to 9350 µM
EC50 ([17]; pH 8): 34 µM
EC50 ([17]; pH 10): 0.575 µM
Ka for iminobiotin/WT streptavidin [18]: 10^8 M^-1
affinity for 2-iminobiotin [19]: < 10^3 M^-1
